Data taken from patent US8735602B2, “Pharmaceutically acceptable salts of thymodepressin and processes for their manufacture” (Apotex Technologies inc., priority 2006, dated 2014).

Key:
Format in all cases: physicochemical
[1] = Hygroscopicity of the freeze-dried solid in air
[2] = Stability of the solid salt
Description: It is extremely hygroscopic and very difficult to weigh for formulation research. In solution, as per the speciation plot (FIG. 5), the pH is above 9.0 and the solution pH must be adjusted to about 7.0 to about 7.4 in a formulation preparation.

[3] = Speciation plot (FIG. 5) calculation of solution pH from experimentally determined pKas; conditions: according to the speciation plot calculation
Description: A pharmaceutically acceptable salt of a drug substance is one that is chemically stable and can be used in a pharmaceutical composition. Unlike simple aromatic hydrocarbons, thymodepressin is a dipeptide with multi-functional groups. The dipeptide D-isoglutamyl-D-tryptophan has an alpha amine, two carboxylic acids and an indole nitrogen within the same molecule. An ideal salt should be one that has a solution pH close to about 7 and in the low basic pH range. Through investigations in our laboratory, in the search for a novel salt to address the shortcomings of the disodium salt of D-isoglutamyl-D-tryptophan, the speciation plot (FIG. 5) was used to determine salts with ideal solution pH and solubility that are suitable for pharmaceutical formulations. FIG. 5 is a speciation plot of H-D-iGlu-D-Trp-OH from pH 0 to 12 using experimentally determined pKas. In FIG. 5, LH2=H-D-iGlu-D-Trp-OH, LH=mono carboxylic acid salt, L=dicarboxylic acid salt, and LH3=acid addition salt of H-D-iGlu-D-Trp-OH. The X axis provides the pH of the solution, whereas the Y axis reports the amount of the species present at a particular pH. From our practical experience, we use 6 ml of water per gm of H-D-iGlu-D-Trp-OH for isolation purposes, which corresponds to a concentration of 0.5 M solution.
According to the speciation plot calculation shown in FIG. 5, the diacid form has a pH of about 2.7 to about 3 in solution. The metal salt of formula I wherein M is potassium or lithium; the divalent salt of formula II wherein B is calcium or magnesium has a solution pH close to about 7.
We have applied the speciation plot (FIG. 5) to compute the pH range of the salt forms of the dipeptide H-D-iGlu-D-Trp-OH. […] This is particular ideal for liquid formulation, sublingual tablets, nasal drops and sprays.

[4] = Percent crystallinity by X-ray powder diffraction; conditions: XRPD, D8 system with 2D detector; not absolute values
Description: The percent crystallinity is commonly measured as a ratio between the diffraction portion from the crystalline part of the sample, Ic, and the total diffraction from the same sample, IC+B. The values of IC can be obtained after an appropriate subtraction of the scattering portion from the background, IB.
For such kind of analyses, the diffraction is measured as total area under the profile of: • the whole pattern as it is collected (one may correct for the air scattering) −ITOTAL* • the peaks only (IC) after subtraction of the background (correction for the air scattering), • the background only with correction for air scattering −(IB).
However, in this study, due to the technical problems with the D5000 point-detector diffraction system, all the samples were analyzed on a D8 system, equipped with an area, 2D detector, and the above-mentioned approach could not be applied. Therefore, another technique has been developed for measuring the crystallinity of samples analyzed on such system. Only a narrow part of the 2D diffraction image is chosen with a single peak at the centre and a neighbour area where the background will be measured.
All samples were measured for calculation of their crystallinity using a narrow range of 21°-25° with a strongest reflection at […]. The background was subtracted as linear, and an empirical correlation coefficient of 2.5 was applied.

| Compound | hygroscopicity [1] | stability as a solid [2] | pH in solution [3] | percent crystallinity [4] |
| --- | --- | --- | --- | --- |
| disodium salt of D-isoglutamyl-D-tryptophan | extremely hygroscopic turning into a gel in a matter of minutes in air | less stable chemical entity as a solid | above 9.0 |  |
| D-isoglutamyl-D-tryptophan magnesium salt (2:1) [magnesium salt of formula II] |  |  | about 7 |  |
| D-isoglutamyl-D-tryptophan calcium salt (2:1) [calcium salt of formula II] |  |  | about 7 | ≤ 67% |
| Calcium Salt of D-isoglutamyl-D-tryptophan (1:2) [Example 8] |  |  |  | 18-20% |
| NC(=O)[C@H](N)CCC(=O)N[C@H](Cc1c[nH]c2ccccc12)C(=O)[O-].[K+] [potassium salt of formula I, D-isoglutamyl-D-tryptophan potassium salt (1:1)] |  |  | about 7 |  |
